US10005768B2, “Carboxamide derivatives and use thereof” (Purdue Pharma L.P., priority 2013, dated 2018)

Target: human Nav1.7 (Homo sapiens (Human), UniProt Q15858)
Assay: FLIPR sodium dye assay (CoroNa Green AM Na+ dye, primary fluorescence assay)
Type: cell-based
Conditions: recombinant Nav1.7/HEK293 cells
How it was run: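 HEK293 cells stably expressing human Nav1.7 α subunit (no β/γ subunits), loaded with 5 μM CoroNa Green Na+ dye in HEPES-buffered Hanks-type saline, pH 7.3. Na+ influx stimulated by 100 μM veratridine plus 10 μg/mL Leiurus scorpion venom; compounds tested at 20 μM down to 0.001 μM (10 points, 0.2% DMSO).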

Chain of human Nav1.7 (Q15858 other isoform, or with tags, fused parts or gaps): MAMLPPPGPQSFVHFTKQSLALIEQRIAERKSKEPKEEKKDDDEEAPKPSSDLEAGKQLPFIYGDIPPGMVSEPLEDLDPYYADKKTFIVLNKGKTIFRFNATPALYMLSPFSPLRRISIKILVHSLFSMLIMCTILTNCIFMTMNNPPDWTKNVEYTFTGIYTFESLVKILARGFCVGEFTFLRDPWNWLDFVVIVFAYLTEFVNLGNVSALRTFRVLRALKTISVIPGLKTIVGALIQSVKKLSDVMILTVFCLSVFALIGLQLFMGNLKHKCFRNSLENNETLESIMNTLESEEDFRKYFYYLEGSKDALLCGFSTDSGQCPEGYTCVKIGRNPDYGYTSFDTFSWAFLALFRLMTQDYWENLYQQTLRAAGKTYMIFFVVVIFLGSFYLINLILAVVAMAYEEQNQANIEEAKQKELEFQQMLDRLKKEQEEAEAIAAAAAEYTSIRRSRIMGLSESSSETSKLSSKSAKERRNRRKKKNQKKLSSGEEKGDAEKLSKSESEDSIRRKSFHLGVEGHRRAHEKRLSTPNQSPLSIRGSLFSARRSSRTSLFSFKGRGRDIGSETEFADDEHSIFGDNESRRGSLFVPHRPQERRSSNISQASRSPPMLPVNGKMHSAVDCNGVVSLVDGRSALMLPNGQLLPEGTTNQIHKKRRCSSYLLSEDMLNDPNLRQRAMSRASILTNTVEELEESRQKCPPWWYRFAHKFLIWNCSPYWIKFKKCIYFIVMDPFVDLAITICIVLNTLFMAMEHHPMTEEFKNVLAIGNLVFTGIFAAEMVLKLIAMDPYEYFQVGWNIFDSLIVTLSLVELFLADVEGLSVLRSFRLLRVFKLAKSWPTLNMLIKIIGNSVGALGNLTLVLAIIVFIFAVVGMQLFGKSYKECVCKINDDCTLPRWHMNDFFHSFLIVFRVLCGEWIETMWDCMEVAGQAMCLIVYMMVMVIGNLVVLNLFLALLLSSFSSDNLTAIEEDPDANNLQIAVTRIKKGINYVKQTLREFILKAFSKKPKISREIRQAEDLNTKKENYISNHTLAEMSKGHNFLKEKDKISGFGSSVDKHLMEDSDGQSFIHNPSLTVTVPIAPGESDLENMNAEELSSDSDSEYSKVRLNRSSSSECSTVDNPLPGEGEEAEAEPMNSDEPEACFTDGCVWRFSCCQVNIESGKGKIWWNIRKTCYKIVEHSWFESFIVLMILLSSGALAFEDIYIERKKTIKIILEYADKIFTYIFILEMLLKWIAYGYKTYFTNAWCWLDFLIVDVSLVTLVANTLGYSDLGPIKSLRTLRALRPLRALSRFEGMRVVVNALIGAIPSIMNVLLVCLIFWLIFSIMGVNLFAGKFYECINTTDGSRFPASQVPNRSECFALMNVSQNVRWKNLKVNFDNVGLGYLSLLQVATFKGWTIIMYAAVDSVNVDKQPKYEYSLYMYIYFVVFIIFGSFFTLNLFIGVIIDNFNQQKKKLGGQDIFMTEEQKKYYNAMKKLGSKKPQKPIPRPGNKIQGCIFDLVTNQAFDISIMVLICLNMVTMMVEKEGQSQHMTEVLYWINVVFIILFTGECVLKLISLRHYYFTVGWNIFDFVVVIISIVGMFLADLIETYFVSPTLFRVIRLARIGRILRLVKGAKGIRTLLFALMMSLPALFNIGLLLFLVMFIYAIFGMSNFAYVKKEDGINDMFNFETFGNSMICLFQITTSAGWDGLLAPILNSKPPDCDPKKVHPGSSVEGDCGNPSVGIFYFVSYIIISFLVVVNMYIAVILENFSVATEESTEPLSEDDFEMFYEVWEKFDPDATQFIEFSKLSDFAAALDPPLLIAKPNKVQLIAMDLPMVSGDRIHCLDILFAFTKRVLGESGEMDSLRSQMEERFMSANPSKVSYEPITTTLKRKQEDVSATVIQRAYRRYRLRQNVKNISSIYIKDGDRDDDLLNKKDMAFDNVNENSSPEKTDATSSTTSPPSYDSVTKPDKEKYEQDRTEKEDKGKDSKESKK

Compound	IC50
NC(=O)c1cccc(-c2ccc(Oc3ccc(C(F)(F)F)c(CN4CCNC(=O)C4)c3)cc2)n1 [compound 106, 6-(4-(3-((3-oxopiperazin-1-yl)methyl)-4-(trifluoromethyl)-phenoxy)phenyl)picolinamide]	0.455 ± 0.059 µM
OC[C@@H](O)c1cccc(-c2ccc(Oc3ccc(C(F)(F)F)cc3CN3CCCCC3)cc2)n1 [compound 107, (S)-1-(6-(4-(2-(piperidin-1-ylmethyl)-4-(trifluoromethyl)phenoxy)phenyl)pyridin-2-yl)ethane-1,2-diol]	0.174 ± 0.041 µM
NC(=O)c1cccc(-c2ccc(Oc3ccc(C(F)(F)F)cc3CNC3CCCC3)cc2)n1 [compound 108, 6-(4-(2-((cyclopentylamino)-methyl)-4-(trifluoromethyl)-phenoxy)phenyl)picolinamide]	0.28 ± 0.009 µM
NC(=O)c1cccc(-c2ccc(Oc3ccc(C(F)(F)F)cc3C(C(=O)N3CCCC3)N3CCCC3)cc2)n1 (stereo not shown) [compound 111, 6-(4-(2-(2-oxo-1,2-di(pyrrolidin-1-yl)ethyl)-4-(trifluoromethyl)phenoxy)phenyl) picolinamide]	6.59 ± 0.321 µM
NC(=O)c1cccc(-c2ccc(Oc3ccc(C(F)(F)F)cc3C(C(=O)N3CCCC3)N3CCNC(=O)C3)cc2)n1 (stereo not shown) [compound 112, 6-(4-(2-(2-oxo-1-(3-oxopiperazin-1-yl)-2-(pyrrolidin-1-yl)ethyl)-4-(trifluoromethyl)phenoxy)phenyl) picolinamide]	> 20 µM
CCN(CC)S(=O)(=O)c1cc(C(F)(F)F)ccc1Oc1ccc(-c2cccc([C@H](O)CO)n2)cc1 [compound 113, (S)-2-(4-(6-(1,2-dihydroxyethyl)pyridin-2-yl)phenoxy)-N,N-diethyl-5-(trifluoromethyl)benzenesulfonamide]	0.249 ± 0.016 µM
NC(=O)c1cccc(-c2ccc(Oc3ccc(C(F)(F)F)cc3CNc3nccs3)cc2)n1 [compound 114, 6-(4-(2-((thiazol-2-ylamino)methyl)-4-(trifluoromethyl)phenoxy)phenyl) picolinamide]	2.01 ± 0.456 µM
OC[C@H](O)c1ccnc(-c2ccc(Oc3ccc(C(F)(F)F)cc3CN3CCCC3)cc2)n1 [compound 115, (R)-1-(2-(4-(2-(pyrrolidin-1-ylmethyl)-4-(trifluoromethyl)phenoxy)phenyl)pyrimidin-4-yl)ethane-1,2-diol]	0.455 ± 0.067 µM
OC[C@@H](O)c1ccnc(-c2ccc(Oc3ccc(C(F)(F)F)cc3CN3CCCC3)cc2)n1 [compound 116, (S)-1-(2-(4-(2-(pyrrolidin-1-ylmethyl)-4-(trifluoromethyl)phenoxy)phenyl)pyrimidin-4-yl)ethane-1,2-diol]	0.636 ± 0.065 µM
CCN(CCN(C)C)Cc1cc(C(F)(F)F)ccc1Oc1ccc(-c2cccc(C(N)=O)n2)cc1 [compound 120, 6-(4-(2-(((2-(dimethylamino)ethyl)(ethyl)amino)methyl)-4-(trifluoromethyl)phenoxy)phenyl) picolinamide]	0.578 ± 0.098 µM
COC(=O)c1cccc(-c2ccc(Oc3ccc(C(F)(F)F)cc3C(O)C#N)cc2)n1 (stereo not shown) [compound 144, methyl 6-(4-(2-(cyano(hydroxy)methyl)-4-(trifluoromethyl)phenoxy)phenyl) picolinate]	3.79 ± 0.377 µM
OC[C@@H](O)c1cccc(-c2ccc(Oc3ccc(F)cc3C(O)C(F)(F)F)cc2)n1 (stereo partly drawn) [compound 156, (1S)-1-(6-(4-(4-fluoro-2-(2,2,2-trifluoro-1-hydroxyethyl)-phenoxy)phenyl)pyridin-2-yl)ethane-1,2-diol]	1.29 ± 0.182 µM

Second part, the molecule after the results:

IC50	Compound
1.3 ± 0.056 µM	CCN(CC)S(=O)(=O)c1cc(C(F)(F)F)ccc1Oc1ccc(-c2cccc(C(N)=O)n2)cc1 [compound 109, 6-(4-(2-(N,N-diethylsulfamoyl)-4-(trifluoromethyl)phenoxy)phenyl)picolinamide]
0.066 ± 0.007 µM	CCN(C)Cc1cc(C(F)(F)F)ccc1Oc1ccc(-c2cccc(C(N)=O)n2)cc1 [compound 117, 6-(4-(2-((ethyl(methyl)amino)methyl)-4-(trifluoromethyl)phenoxy)phenyl) picolinamide]
0.118 ± 0.012 µM	CCN(CC)Cc1cc(C(F)(F)F)ccc1Oc1ccc(-c2cccc(C(N)=O)n2)cc1 [compound 118, 6-(4-(2-((diethylamino)methyl)-4-(trifluoromethyl)phenoxy)phenyl) picolinamide]
0.59 ± 0.092 µM	CCN(CCO)Cc1cc(C(F)(F)F)ccc1Oc1ccc(-c2cccc(C(N)=O)n2)cc1 [compound 119, 6-(4-(2-((ethyl(2-hydroxyethyl)amino)methyl)-4-(trifluoromethyl)phenoxy)phenyl) picolinamide]
0.716 ± 0.09 µM	NC(=O)c1cccc(-c2ccc(Oc3ccc(C(F)(F)F)cc3CN3CCCC(C(N)=O)C3)cc2)n1 (stereo not shown) [compound 121, 6-(4-(2-((3-carbamoylpiperidin-1-yl)methyl)-4-(trifluoromethyl)phenoxy)phenyl) picolinamide]
3.34 ± 0.452 µM	N#CC(N)c1cc(C(F)(F)F)ccc1Oc1ccc(-c2cccc(C(N)=O)n2)cc1 (stereo not shown) [compound 145, 6-(4-(2-(amino(cyano)methyl)-4-(trifluoromethyl)phenoxy)phenyl) picolinamide]
> 20 µM	NC(=O)c1cccc(-c2ccc(Oc3ccc(C(F)(F)F)cc3/C=C3\SC(=O)NC3=O)cc2)n1 [compound 155, (Z)-6-(4-(2-((2,4-dioxothiazolidin-5-ylidene)methyl)-4-(trifluoromethyl)phenoxy)phenyl) picolinamide]
2.71 ± 0.235 µM	NC(=O)c1cccc(-c2ccc(Oc3ccc(C(F)(F)F)cc3C(=O)C(=O)N3CCCC3)cc2)n1 [compound 157, 6-(4-(2-(2-oxo-2-(pyrrolidin-1-yl)acetyl)-4-(trifluoromethyl)-phenoxy)phenyl)picolinamide]
0.214 ± 0.029 µM	NC(=O)c1cccc(-c2ccc(Oc3ccc(C(F)(F)F)cc3C(O)C(=O)N3CCCC3)cc2)n1 (stereo not shown) [compound 158, 6-(4-(2-(1-hydroxy-2-oxo-2-(pyrrolidin-1-yl)ethyl)-4-(trifluoromethyl)phenoxy)phenyl) picolinamide]
1.26 ± 0.135 µM	NC(=O)c1cccc(-c2ccc(Oc3ccc(C(F)(F)F)cc3C(=O)O)cc2)n1 [compound 159, 2-(4-(6-carbamoylpyridin-2-yl)phenoxy)-5-(trifluoro-methyl)benzoic acid]
2.85 ± 0.698 µM	NC(=O)c1cccc(-c2ccc(Oc3ccc(C(F)(F)F)cc3C(=O)N3CCCC3)cc2)n1 [compound 160, 6-(4-(2-(pyrrolidine-1-carbonyl)-4-(trifluoromethyl)phenoxy)phenyl)picolinamide]
> 20 µM	CN(CCO)C(=O)c1cc(C(F)(F)F)ccc1Oc1ccc(-c2cccc(C(N)=O)n2)cc1 [compound 161, 6-(4-(2-((2-hydroxyethyl)-(methyl)carbamoyl)-4-(trifluoromethyl)phenoxy)phenyl) picolinamide]
7.95 ± 0.402 µM	CN1CCN(C(=O)c2cc(C(F)(F)F)ccc2Oc2ccc(-c3cccc(C(N)=O)n3)cc2)CC1 [compound 162, 6-(4-(2-(4-methylpiperazine-1-carbonyl)-4-(trifluoromethyl)phenoxy)phenyl)picolinamide]
> 20 µM	CNC(=O)c1cc(C(F)(F)F)ccc1Oc1ccc(-c2cccc(C(N)=O)n2)cc1 [compound 163, 6-(4-(2-(methylcarbamoyl)-4-(trifluoromethyl)phenoxy)phenyl) picolinamide]
0.143 ± 0.023 µM	CCN(CC)C(=O)c1cc(C(F)(F)F)ccc1Oc1ccc(-c2cccc(C(N)=O)n2)cc1 [compound 164, 6-(4-(2-(diethylcarbamoyl)-4-(trifluoromethyl)phenoxy)phenyl) picolinamide]
> 20 µM	NC(=O)c1cccc(-c2ccc(Oc3ccc(C(F)(F)F)cc3C(=O)N3CCNC(=O)C3)cc2)n1 [compound 165, 6-(4-(2-(3-oxopiperazine-1-carbonyl)-4-(trifluoromethyl)-phenoxy)phenyl)picolinamide]
